Measured values reported in the CheMixHub viscosity set.

Assay: xn = mol fraction of the nth substance listed

[Cl-].[Cl-].[Cl-].[La+3] + O
viscosity [mPa·s]
Settings | 293.15 K | 298.15 K | 303.15 K | 308.15 K | 318.15 K
100 kPa, x1 = 0.000538 | 1.026 | 0.9124 | 0.8179 | 0.7374 | –
100 kPa, x1 = 0.000907 | 1.037 | 0.922 | 0.8265 | 0.7452 | –
100 kPa, x1 = 0.001802 | – | 0.9485 | 0.8506 | 0.7674 | –
100 kPa, x1 = 0.003595 | 1.12 | 0.9971 | 0.8947 | 0.8106 | –
100 kPa, x1 = 0.005372 | – | – | 0.9462 | 0.857 | –
100 kPa, x1 = 0.007147 | – | – | – | 0.9116 | –
100 kPa, x1 = 0.008936 | – | – | 1.076 | 0.9725 | –
100 kPa, x1 = 0.0107 | – | – | – | 1.041 | –
101 kPa, x1 = 0.008899 | – | – | 1.075 | – | –
101.3 kPa, x1 = 0.0009 | 1.037 | 0.9217 | 0.8261 | 0.7453 | 0.618
101.3 kPa, x1 = 0.0018 | – | – | – | 0.7687 | 0.6382
101.3 kPa, x1 = 0.00893 | – | – | 1.076 | 0.9735 | 0.8112
101.3 kPa, x1 = 0.0177 | 1.818 | 1.623 | 1.46 | 1.322 | 1.102
101.3 kPa, x1 = 0.02631 | 2.522 | 2.246 | 2.016 | 1.824 | 1.516
101.3 kPa, x1 = 0.03478 | 3.611 | 3.199 | 2.857 | 2.573 | 2.12
101.3 kPa, x1 = 0.0431 | 5.287 | 4.642 | 4.114 | 3.678 | 2.992
101.3 kPa, x1 = 0.05127 | 7.977 | 6.922 | 6.069 | 5.371 | 4.29

O=CO + CC(C)=O
viscosity [mPa·s], 101 kPa
Settings | x1 = 0.1014 | x1 = 0.2068 | x1 = 0.299 | x1 = 0.4009 | x1 = 0.4945 | x1 = 0.6083 | x1 = 0.6998 | x1 = 0.8014 | x1 = 0.8947
298.15 K | 0.3575 | 0.4002 | 0.4482 | 0.5192 | 0.5972 | 0.7312 | 0.8622 | 1.053 | 1.287
308.15 K | 0.3251 | 0.3639 | 0.4063 | 0.4659 | 0.5315 | 0.642 | 0.7455 | 0.906 | 1.079
318.15 K | 0.2954 | 0.3287 | 0.3657 | 0.4163 | 0.4726 | 0.5609 | 0.6457 | 0.7719 | 0.9139

Cc1ccc(O)cc1C + CC12CCC(CC1=O)C2(C)C
101.33 kPa, x1 = 0.7
Settings | viscosity [mPa·s]
293.15 K | 25.37
298.15 K | 18.86
303.15 K | 14.61
308.15 K | 11.42
313.15 K | 9.026
318.15 K | 7.494
323.15 K | 6.189

CC(C)C1CCCCC1 + C1C[C@@H]2[C@H]3CC[C@H](C3)[C@@H]2C1
viscosity [mPa·s], 100 kPa
Settings | x2 = 0.1002 | x2 = 0.1999 | x2 = 0.3001 | x2 = 0.4 | x2 = 0.5 | x2 = 0.5999 | x2 = 0.7001 | x2 = 0.8003 | x2 = 0.8999
293.15 K | 1.194 | 1.305 | 1.431 | 1.578 | 1.741 | 1.938 | 2.165 | 2.421 | 2.706
298.15 K | 1.106 | 1.206 | 1.32 | 1.451 | 1.597 | 1.775 | 1.976 | 2.205 | 2.456
303.15 K | 1.029 | 1.119 | 1.222 | 1.34 | 1.471 | 1.631 | 1.812 | 2.016 | 2.241
308.15 K | 0.96 | 1.042 | 1.135 | 1.242 | 1.361 | 1.506 | 1.67 | 1.853 | 2.055
313.15 K | 0.898 | 0.973 | 1.058 | 1.156 | 1.265 | 1.397 | 1.543 | 1.709 | 1.891
318.15 K | 0.842 | 0.911 | 0.989 | 1.078 | 1.178 | 1.298 | 1.431 | 1.581 | 1.746
323.15 K | 0.793 | 0.855 | 0.927 | 1.009 | 1.1 | 1.21 | 1.331 | 1.467 | 1.616
